US8273775B2, “Non-steroidal brassinosteroid mimetic” (priority 2006, dated 2012)

Tests used:
[1] = test system: Arabidopsis thaliana seedlings; test: Chemical genetics screening for brassinosteroid-related phenotypes; format: in vivo; details: young seedlings
Method: A commercial 10.000 compound library (DiverSet, ChemBridge, USA) was screened for brassinosteroid related phenotypes. Three to four Arabidopsis thaliana (L.) Heynh. seeds were sown in 96-well filterplates (Multiscreen HTS MSBVS1210, Millipore, USA) in liquid medium derived from standard Murashige and Skoog (MS) medium in a growth chamber under continuous light (110 μE.m^2. s^1 photosynthetically active radiation, supplied by cool-white fluorescent tungsten tubes; Osram) at 22° C. Three days after germination compounds were added to the 96-well plates at a final concentration of 50 μM. Plants were screened six days after germination for brassinosteroid-related phenotypes.
For further phenotypical analysis, all plants were grown on vertically oriented square plates (Greiner Labortechnik, Austria) with solid medium derived from standard Murashige and Skoog medium under the same conditions. For the hypocotyl-elongation assay, plants were grown in the dark at 22° C. under the same conditions.

BIN2 kinase = biological target: T1, BIN2 kinase (Arabidopsis thaliana, UniProt Q39011); test: In vitro kinase assay GST-BIN2 with MBP-BES1; format: biochemical
T1 sequence (Q39011 1-380): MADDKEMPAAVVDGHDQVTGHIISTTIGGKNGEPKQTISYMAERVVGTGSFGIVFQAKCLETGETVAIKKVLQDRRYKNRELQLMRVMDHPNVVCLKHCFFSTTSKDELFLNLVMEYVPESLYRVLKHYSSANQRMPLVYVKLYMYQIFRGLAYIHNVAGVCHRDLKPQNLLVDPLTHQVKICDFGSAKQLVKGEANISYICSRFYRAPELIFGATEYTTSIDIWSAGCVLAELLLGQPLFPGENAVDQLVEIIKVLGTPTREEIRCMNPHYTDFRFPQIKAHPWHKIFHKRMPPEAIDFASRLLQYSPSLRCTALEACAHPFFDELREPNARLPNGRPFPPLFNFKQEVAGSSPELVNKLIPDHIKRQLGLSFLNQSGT
Method: (§1) Coomassie staining was used as a loading control. b, Autoradiography of kinase assays with nine ASKs with MBP as a substrate in the presence or absence of 10 μM abrasin. The second member of group IV, ASKκ, had no kinase activity and was not included in the analysis. c, Autoradiography of kinase assays with AtMPK4, AtMPK6 and MBP as a substrate (left) and with AtAUR1 kinase and histone H3 as a substrate (right) in the presence or absence of 10 μM abrasin.
(§2) For in vitro kinase assays, MBP, MBP-BES1, and MBP-bes1 (20 ng each) were incubated with GST-BIN2 or GST-BRI1 kinase (200 ng each) in 20 μl of kinase buffer (20 mM Tris [pH 7.5], 100 mM NaCl, and 12 mM MgCl2) and 10 μCi ^32P-γATP. After incubation at 37° C. for 40 min, the reactions were stopped by adding 20 μl of 2×SDS buffer and boiling at 94° C. for 5 min. Proteins were resolved by a PAGE gel and phosphorylation was detected by exposing the dried gel to X-ray film. Proteins from 35S::bes1-GFP transgenic plants were used for phosphatase (CIP) treatments as described (Fankhauser et al., 1999).

[2] = test system: group I GSK-3 kinases (ASKs); test: ASK kinase assay with MBP as substrate, group I; format: biochemical, Arabidopsis; details: 10 μM abrasin
Method: as §1
as §2, with “Proteins from 35S::bes1-GFP transgenic plants were used for phosphatase (CIP) treatments as described (Fankhauser et al., 1999).” left out
Besides BIN2, nine additional GSK-3 kinases (also designated ASKs for Arabidopsis SHAGGY-related kinases) divided into four subgroups (I-IV) have been identified in Arabidopsis (Jonak and Hirt, 2002; Yoo et al. 2006). To determine the specificity of abrasin, its effect on the kinase activity of all ASKs was analyzed with myelin basic protein (MBP) as a general substrate. […]

ASKθ (group III) = biological target: T2, ASKθ (group III) (Arabidopsis thaliana, UniProt Q96287); test: ASK kinase assay with MBP as substrate, ASKθ; format: biochemical; details: 10 μM abrasin; read-out: residual activity
T2 sequence (Q96287 1-472): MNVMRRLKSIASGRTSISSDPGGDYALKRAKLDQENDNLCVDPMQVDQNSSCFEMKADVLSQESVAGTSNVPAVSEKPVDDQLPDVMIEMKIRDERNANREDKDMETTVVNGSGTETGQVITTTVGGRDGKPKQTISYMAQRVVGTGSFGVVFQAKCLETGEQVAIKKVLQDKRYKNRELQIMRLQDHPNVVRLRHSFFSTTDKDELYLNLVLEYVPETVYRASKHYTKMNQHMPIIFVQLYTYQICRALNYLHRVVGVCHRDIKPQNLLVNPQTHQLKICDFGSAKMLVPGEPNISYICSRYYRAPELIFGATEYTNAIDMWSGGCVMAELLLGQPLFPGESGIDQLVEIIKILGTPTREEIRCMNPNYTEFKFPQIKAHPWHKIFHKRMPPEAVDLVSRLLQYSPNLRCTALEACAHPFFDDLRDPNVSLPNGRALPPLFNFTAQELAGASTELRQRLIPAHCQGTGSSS
Method: (§3) Coomassie staining was used as a loading control. b, Autoradiography of kinase assays with nine ASKs with MBP as a substrate in the presence or absence of 10 μM abrasin.
as §2
(§4) Besides BIN2, nine additional GSK-3 kinases (also designated ASKs for Arabidopsis SHAGGY-related kinases) divided into four subgroups (I-IV) have been identified in Arabidopsis (Jonak and Hirt, 2002; Yoo et al. 2006). To determine the specificity of abrasin, its effect on the kinase activity of all ASKs was analyzed with myelin basic protein (MBP) as a general substrate.

ASKβ (group III) = biological target: T3, ASKβ (group III) (Arabidopsis thaliana, UniProt O23145); test: ASK kinase assay with MBP as substrate, ASKβ; format: biochemical; details: 10 μM abrasin
T3 sequence (O23145 1-431): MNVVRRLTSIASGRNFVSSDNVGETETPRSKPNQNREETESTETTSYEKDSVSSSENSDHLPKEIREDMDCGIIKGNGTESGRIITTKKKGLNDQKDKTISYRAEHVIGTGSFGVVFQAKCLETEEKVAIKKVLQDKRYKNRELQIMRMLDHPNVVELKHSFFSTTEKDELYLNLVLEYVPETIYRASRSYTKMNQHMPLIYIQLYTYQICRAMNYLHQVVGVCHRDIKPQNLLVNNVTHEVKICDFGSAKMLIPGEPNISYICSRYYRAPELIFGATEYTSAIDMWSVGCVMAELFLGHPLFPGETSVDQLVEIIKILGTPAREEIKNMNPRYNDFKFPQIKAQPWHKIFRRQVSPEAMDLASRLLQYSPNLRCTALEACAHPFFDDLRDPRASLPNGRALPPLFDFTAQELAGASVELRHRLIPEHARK
Method: as §3, §2, §4

**Q.** Which “elongation of leaves, petioles and the hypocotyl” value [1] does the source give for `O=C(O)CCC(=O)Nc1ccc(Br)cn1` [abrasin, 4-[(5-bromo-2-pyridinyl)amino]-4-oxobutanoic acid] here?
**A.** Its value is “strongly induced elongation of leaves, petioles and the hypocotyl in a dosage-dependent manner”.

**Q.** And the “concentration at which inhibitory effect was already apparent” value (BIN2 kinase)?
**A.** Its value is “lower than 2.5 μM”.

**Q.** And the “BIN2 kinase activity towards its substrate BES1” value (BIN2 kinase; 0 to 10 μM)?
**A.** Its value is “strongly reduced BIN2 kinase activity towards its substrate BES1 in a dose-dependent manner”.

**Q.** What about the “inhibitory effect on BIN2 kinase activity” value (BIN2 kinase; at 10 μM) of the same compound?
**A.** Its value is “dramatic”.

**Q.** What about the residual activity [2] of the same compound?
**A.** Its residual activity is 6-8%.

**Q.** And the remaining activity at 10 µM (ASKθ (group III))?
**A.** Its remaining activity at 10 µM is 20%.

**Q.** And the “effect on kinase activity” value (ASKβ (group III))?
**A.** Its value is “not affected”.
